Residue numbers refer to the chain shown, from its start. Where “and” joins values, the source holds several entries; their conditions need not be identical. Equal entries are not always repeated.
What was measured:
PfCRT variant F287A = target: T1, PfCRT variant F287A (Plasmodium falciparum, UniProt Q9N623, A220S/F287A/I356T/K76T/M74I/N326S/N75E/Q271E/R371I); test: CQ uptake assay, oocytes expressing F287A; format: cell-based
T1 sequence (Q9N623 1-424 M74I/N75E/K76T/A220S/Q271E/F287A/N326S/I356T/R371I): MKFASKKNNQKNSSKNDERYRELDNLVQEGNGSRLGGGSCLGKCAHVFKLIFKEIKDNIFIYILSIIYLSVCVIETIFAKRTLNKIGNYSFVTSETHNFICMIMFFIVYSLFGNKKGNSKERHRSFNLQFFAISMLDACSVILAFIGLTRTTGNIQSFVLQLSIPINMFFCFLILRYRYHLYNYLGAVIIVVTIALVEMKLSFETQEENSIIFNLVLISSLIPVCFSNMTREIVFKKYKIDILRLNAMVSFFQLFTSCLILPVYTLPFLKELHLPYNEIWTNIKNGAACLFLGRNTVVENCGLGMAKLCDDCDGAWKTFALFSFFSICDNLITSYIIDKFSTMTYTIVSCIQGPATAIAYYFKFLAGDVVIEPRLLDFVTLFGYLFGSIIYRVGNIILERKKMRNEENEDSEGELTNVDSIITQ
Protocol: (§1) Site-directed mutagenesis of PfCRT^Dd2 was performed as described using the megaprimer method with overlap extension[21],[54]. The primer pairs used are listed in Supplementary Table 6. Please note that a codon-optimized and oocyte-adapted version of PfCRT^Dd2 was used[22] (Supplementary Fig. 16). The resulting DNA fragment was cloned into the SP64T expression vector and verified by sequencing.
(§2) Oocytes were obtained as described previously. Briefly, adult (>2 years old) female X. laevis frogs (NASCO) were anesthetized in a cooled solution of ethyl 3-amino benzoate methanesulfonate (0.1%, w/v), followed by a surgical removal of parts of the ovary. The ovary lobes were carefully dissected and small pieces of oocytes were incubated in Ca^2+-free ND96 buffer (96 mM NaCl, 2 mM KCl, 1 mM MgCl2 buffered with 5 mM HEPES/NaOH, pH 7.5) supplemented with collagenase D (0.1%, w/v; Roche), BSA (0.5%, w/v), and 9 mm Na2HPO4 at 18 °C for 14-16 h while gentle shaking. After incubation, the oocytes were carefully washed several times with ND96 buffer (96 mM NaCl, 2 mM KCl, 1.8 mM CaCl2, 1 mM MgCl2 buffered with 5 mM HEPES/NaOH, pH 7.5) supplemented with 100 mg l^−1 gentamycin). Defolliculated and healthy-looking stage V-VI oocytes were manually selected for RNA microinjection. The RNA was generated as following: The codon-optimized sequences of PfCRT variants were cloned into the pSP64T expression vector. After vector linearization using the restriction endonucleases BamHI or SalI (New England Biolabs), transcription was performed using the in vitro SP6 mMessage mMachine Kit (Ambion)[34]. The obtained RNA was kept at −80 °C and diluted with nuclease-free water to a concentration of 0.6 μg μl^−1. Precision-bore glass capillary tubes (3.5-inch glass capillaries; Drummond Scientific Co.) were pulled on a vertical puller (P-87 Flaming/Brown micropipette puller, Sutter Instrument Co.), graduated, and placed on a microinjector (Nanoject II Auto-Nanoliter Injector, Drummond Scientific Co.). 50 nl of nuclease-free water alone (control oocytes) or 50 nl of 0.6 μg μl^−1 RNA were injected under stereomicroscopic control. Injected oocytes were incubated for 46–72 h at 18 °C with twice-daily buffer changes before usage in experiments.
(§3) Drug uptake assays were performed as described previously[21],[22],[24],[34]. […] The direction of radio-labeled drug transport is here from the mostly acidic extracellular solution (pH 4.5 or 6.0, as indicated) into the oocyte cytosol (pH ∼ 7.2), which corresponds to the efflux of drug from the acidic digestive vacuole (pH 5.2) into the parasite cytoplasm (pH 7.2). The topology of PfCRT in the oolemma is such that both the N- and C-terminus face the extracellular milieu[3],[22]. In the parasite, the N- and C-terminus face the lumen of the digestive vacuole. CQ uptake kinetics were performed by incubating oocytes in ND96 buffer adjusted to a pH of 4.5, 5.0, 5.5, or 6.0 and supplemented with 50 nM [^3H]CQ and one of 7 different CQ concentrations (10 µM, 50 µM, 100 µM, 200 µM, 300 µM, 400 µM, 500 µM CQ). The reaction was stopped at the 60 min time point, which is in the linear uptake range[22],[34] (Supplementary Fig. 17). For determination of the amount of drug uptake for each oocyte, the reaction medium was removed and the oocytes were washed three times with 2 ml of ice-cold ND96 buffer. Each oocyte was individually transferred to a scintillation vial containing 5% sodium dodecyl sulfate (200 μl) for lysis. The radioactivity of each sample was measured using a liquid scintillation analyzer Tri-Carb 4910 TR (PerkinElmer). Oocytes that were injected with water instead of RNA were analyzed in parallel, representing the uptake of a drug by diffusion and/or endogenous permeation pathways. The resulting value represents the “background“ level of drug accumulation in oocytes (in-depth discussion in[22]). […]

[1] = target: T2, PfCRT variant CD3 (F3A, E29A, F52A, Y238A, F340A, E399A, E407A) (Plasmodium falciparum, UniProt Q9N623, A220S/E29A/E399A/E407A/F340A/F3A/F52A/I356T/K76T/M74I/N326S/N75E/Q271E/R371I/Y238A); test: CQ uptake assay, oocytes expressing CD3; format: cell-based
T2 sequence (Q9N623 1-424 F3A/E29A/F52A/M74I/N75E/K76T/A220S/Y238A/Q271E/N326S/F340A/I356T/R371I/E399A/E407A): T1 sequence (Q9N623 1-424 M74I/N75E/K76T/A220S/Q271E/F287A/N326S/I356T/R371I) with F3A, E29A, F52A, Y238A, A287F, F340A, E399A, E407A
Protocol: as §1, §2, §3

[2] = pKa values of the drugs (literature); format: physicochemical; details: between pH 4.5 and 6.0
[3] = F287A, 50 µM CQ, 1 h, mean ± SEM
[4] = pH 4.5, single replicates, Fig 1d left
[5] = pH 6.0, single replicates, Fig 1d left

In the case of `CCN(CC)CCCC(C)Nc1ccnc2cc(Cl)ccc12` (stereo not shown) [CQ, chloroquine], the “Activity at pH 4.5” value (PfCRT variant F287A; [3]) is reported as 1.50 ± 0.05 pmol h-1 oocyte-1, the “Activity at pH 6.0” value (PfCRT variant F287A; [3]) is reported as 4.71 ± 0.24 pmol h-1 oocyte-1 and the R-value (PfCRT variant F287A; F287A, CQ transport at pH 4.5 / pH 6.0) is reported as 0.32 ± 0.02. The “F287A transport activity pH 4.5” value (PfCRT variant F287A; [4]) was 1.56 pmol oocyte-1 h-1 and 1.62 pmol oocyte-1 h-1 and 1.49 pmol oocyte-1 h-1 and 1.34 pmol oocyte-1 h-1, the “F287 R-value” (PfCRT variant F287A; pH 4.5 vs pH 6.0, Fig 1d left) was 0.32 and 0.33 and 0.38 and 0.26 and the “F287A transport activity pH 6.0” value (PfCRT variant F287A; [5]) was 4.84 pmol oocyte-1 h-1 and 4.98 pmol oocyte-1 h-1 and 3.89 pmol oocyte-1 h-1 and 5.12 pmol oocyte-1 h-1. For the same compound, the “Activity at pH 4.5” value ([1]; CD3, 50 µM CQ, 1 h, mean ± SEM) was 1.78 ± 0.46 pmol h-1 oocyte-1, the “Activity at pH 6.0” value ([1]; CD3, 50 µM CQ, 1 h, mean ± SEM) was 2.73 ± 0.57 pmol h-1 oocyte-1 and the R-value ([1]; CD3, CQ transport at pH 4.5 / pH 6.0) was 0.62 ± 0.06. The “CD3 transport activity pH 4.5” value [1, 4] was 0.66 pmol oocyte-1 h-1 and 2.21 pmol oocyte-1 h-1 and 2.46 pmol oocyte-1 h-1, the “CD3 R-value” ([1]; pH 4.5 vs pH 6.0, Fig 1d left) was 0.47 and 0.72 and 0.65 and the “CD3 transport activity pH 6.0” value [1, 5] was 1.39 pmol oocyte-1 h-1 and 3.05 pmol oocyte-1 h-1 and 3.76 pmol oocyte-1 h-1. For the same compound, the molecules being di-protonated [2] was > 99%.

Reference: article PMC10349806 (Nature Communications, 2023)
